From PubChem BioAssay AID1963959 (Molecular Pharmacology Branch, DTP, NCI, 2024)
Where “and” joins values, the source holds several entries; their conditions need not be identical. Identical values can stand only once.

Tested on: T-47D spheroids with HUVEC/MSC, viability
Assay: Anticancer human tumor T-47D cell line growth inhibition [PI3K];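 further: spheroids exposed to agents for seven days before reading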;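 on viability, T/C: percent of DMSO vehicle control luminescence so 100% = untreated growth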
Settings: for viability, T/C: stronger effect = lower value
Source text: Combinatorial screen of targeted agents with the PI3K inhibitors inavolisib, alpelisib, duvelisib, and copanlisib in multi-cell type tumor spheroids
A high-throughput screen of multi-cell type tumor spheroids was designed to identify active combinations of targeted small molecules and PI3K pathway inhibitors. Complex spheroids include a stromal component modeled by human endothelial cells (HUVEC) and fibroblasts modeled by human mesenchymal stem cells (MSCs). The concentration ranges selected for each drug and investigational agent were based upon clinically achievable concentrations if the clinical Cmax of the agent was known.
Compounds. The drugs and investigational agents: inavolisib (NSC800729), alpelisib (NSC765974), duvelisib (NSC772469), copanlisib (NSC816437), ipatasertib (NSC767898), afuresertib (NSC778305), talazoparib (NSC767125), sapanisertib (NSC764658), selumetinib (NSC741078), tovorafenib (DAY101, NSC766906), vemurafenib (NSC761431), ravoxertinib (NSC781343), sotorasib (NSC818433), MRTX1133 (NSC 836407), abemaciclib (NSC 768073), palbociclib (NSC758247), venetoclax (NSC 766270), SY5609 (NSC837396), enzalutamide (NSC755605), and darolutamide (NSC825331), were obtained from the National Cancer Institute (NCI) Developmental Therapeutics Program Chemical Repository. The FDA-approved anticancer drug set is available from the NCI Developmental Therapeutics Program. […] The stock solutions were prepared in dimethyl sulfoxide (DMSO, Sigma-Aldrich, St. Louis, MO, cat. D2650) at 800-fold the tested concentration and stored at -70 degrees C prior to their use. All drugs and investigational agents were tested over a range starting from a high concentration at or near the clinical Cmax and decreasing in half-log increments. If the clinical Cmax for an agent had not been determined, the highest concentration tested was 10 microM.
Cell Culture. All cells were maintained in an incubator at 37 degrees C and 5% CO2 with 95% humidity. The PDC lines were cultured according to standard operating procedures established by the NCI PDMR (https://pdmr.cancer.gov/sops/default.htm). All PDCs were thawed and cultured in Matrigel-coated flasks prepared with a working solution of 1X Ham's F-12 nutrient mix, without supplementation (Invitrogen, Waltham, MA, cat. 11765054), 100 U/mL penicillin-streptomycin (Invitrogen, cat. 15140122), and 2.5% Matrigel (Corning Inc., Corning, NY, cat. 354248) for the first three passages. The 354836-022-R-J1-PDC, 475296-252-R-J1-PDC, and 997726-040-R-J2-PDC lines were cultured in 6A media, which includes advanced DMEM/F-12 (Thermo Fisher Scientific, cat. 12634028), 10 mM HEPES (Thermo Fisher Scientific, cat. 15630080), 1X GlutaMAX supplement (Thermo Fisher Scientific, cat. 35050061), 0.1 mg/mL primocin (InvivoGen, San Diego, CA, cat. ant-pm-2), 10% defined fetal bovine serum, heat inactivated (HyClone Laboratories Inc., Logan, UT, cat. SH30070.03HI), 50% L-WRN conditioned media (ATCC, cat. CRL-3276), 1.25 mM N-Acetyl-L-cysteine (Sigma-Aldrich, cat. A9165), 10 mM nicotinamide (Sigma-Aldrich, cat. N0636), 1X B-27 supplement (Thermo Fisher Scientific, cat. 17504044), 1X N-2 supplement (Thermo Fisher Scientific, cat. 17502048), and 10 microM Y-27632 dihydrochloride (Tocris Bioscience, Bristol, United Kingdom, cat. 1254). The 624824-186-R-J2-PDC line was cultured in 6C/Colon 1B media, which includes all 6A media components plus 50 ng/mL human EGF recombinant protein (Thermo Fisher Scientific, cat. PHG0311). […]

[1] = compound alone, run of 04/24/2023
[2] = compound alone, run of 04/25/2023

C#Cc1c(F)ccc2cc(O)cc(-c3ncc4c(N5CC6CCC(C5)N6)nc(OCC56CCCN5CC(F)C6)nc4c3F)c12 (configuration not stated)
viability, T/C (compound 0.1 µM): 99.3% [middle of 4 runs]
viability, T/C (compound 3.16 µM): 98.4% [middle of 4 runs]
viability, T/C (compound 10 µM): 96.3% [middle of 4 runs]
IC50 (curve of compound): > 10 µM

C=CC(=O)N1CCN(c2nc(=O)n(-c3c(C)ccnc3C(C)C)c3nc(-c4c(O)cccc4F)c(F)cc23)C(C)C1 (configuration not stated)
viability, T/C (compound 0.0316 µM): 94.8% (2×) and 125% and 115%
viability, T/C (compound 0.1 µM): 96.8% [middle of 4 runs]
viability, T/C (compound 1 µM): 98.7% and 126% (2×) and 94.5%
IC50 (curve of compound): > 10 µM

CC(=O)c1c(C)c2cnc(Nc3ccc(N4CCNCC4)cn3)nc2n(C2CCCC2)c1=O
viability, T/C (compound 0.000316 µM): 94.9% [middle of 4 runs]
viability, T/C (compound 0.001 µM): 98% [middle of 4 runs]
viability, T/C (compound 0.0316 µM): 96.2% [middle of 4 runs]
viability, T/C (compound 0.1 µM): 86.7% [middle of 4 runs]
IC50 (curve of compound): > 0.1 µM

CC(C)NCC(C(=O)N1CCN(c2ncnc3c2C(C)CC3O)CC1)c1ccc(Cl)cc1 (configuration not stated)
viability, T/C (compound 0.0316 µM): 99.4% [middle of 4 runs]
viability, T/C (compound 0.1 µM): 83.5% [middle of 4 runs]
viability, T/C (compound 0.316 µM): 84.9% [middle of 4 runs]
viability, T/C (compound 1 µM): 79.4% [middle of 4 runs]
viability, T/C (compound 3.16 µM): 64.1% [middle of 4 runs]
viability, T/C (compound 10 µM): 52.3% [middle of 4 runs]
IC50 (curve of compound): > 10 µM

CC(C)n1nc(-c2ccc3oc(N)nc3c2)c2c(N)ncnc21
viability, T/C (compound 0.000316 µM): 104% [middle of 4 runs]
viability, T/C (compound 0.001 µM): 96.4% [middle of 4 runs]
viability, T/C (compound 0.00316 µM): 97.8% [middle of 4 runs]
viability, T/C (compound 0.0316 µM): 87.3% [middle of 4 runs]
viability, T/C (compound 0.1 µM): 35.7% [middle of 4 runs]
IC50 (curve of compound): 70.6 nM [middle of 4 runs]

CC(Cn1ccc(-c2ccc(C#N)c(Cl)c2)n1)NC(=O)c1cc(C(C)O)[nH]n1 (configuration not stated)
viability, T/C (compound 0.0316 µM): 100% [middle of 4 runs]
viability, T/C (compound 0.1 µM): 107% [middle of 4 runs]
viability, T/C (compound 0.316 µM): 92.3% [middle of 4 runs]
viability, T/C (compound 1 µM): 95.2% [middle of 4 runs]
viability, T/C (compound 3.16 µM): 89.8% [middle of 4 runs]
viability, T/C (compound 10 µM): 58.7% [middle of 4 runs]
IC50 (curve of compound): > 10 µM

CC(Nc1ccc2c(c1)OCCn1cc(N3C(=O)OCC3C(F)F)nc1-2)C(N)=O (configuration not stated)
viability, T/C (compound 0.00316 µM): 95.1% [middle of 8 runs]
viability, T/C (compound 0.0316 µM): 93.7% [middle of 8 runs]
viability, T/C (compound 0.316 µM): 79.9% [middle of 8 runs]
viability, T/C (compound 1 µM): 57.9% [middle of 8 runs]
IC50 [1]: > 1 µM

CC(Nc1ncnc2nc[nH]c12)c1cc2cccc(Cl)c2c(=O)n1-c1ccccc1 (configuration not stated)
viability, T/C (compound 0.0316 µM): 96.2% [middle of 8 runs]
viability, T/C (compound 0.316 µM): 96.2% [middle of 8 runs]
IC50 [2]: > 10 µM

CC1(C)CCC(CN2CCN(c3ccc(C(=O)NS(=O)(=O)c4ccc(NCC5CCOCC5)c([N+](=O)[O-])c4)c(Oc4cnc5[nH]ccc5c4)c3)CC2)=C(c2ccc(Cl)cc2)C1
viability, T/C (compound 0.0316 µM): 93.2% [middle of 4 runs]
viability, T/C (compound 0.1 µM): 99% [middle of 4 runs]
viability, T/C (compound 0.316 µM): 99% and 91.9% and 111% (2×)
IC50 (curve of compound): > 10 µM

CC1(C)CCC(Nc2ncc(C(F)(F)F)c(-c3c[nH]c4c(P(C)(C)=O)c(C#N)ccc34)n2)CN1 (configuration not stated)
viability, T/C (compound 0.0316 µM): 66% (2×) and 68.7% and 70.4%
viability, T/C (compound 0.1 µM): 72% [middle of 4 runs]
viability, T/C (compound 0.316 µM): 69.9% [middle of 4 runs]
viability, T/C (compound 1 µM): 79.7% [middle of 4 runs]
viability, T/C (compound 3.16 µM): 79.9% [middle of 4 runs]
viability, T/C (compound 10 µM): 54.5% (2×) and 54.6% and 58.2%
IC50 (curve of compound): > 10 µM

CCCS(=O)(=O)Nc1ccc(F)c(C(=O)c2c[nH]c3ncc(-c4ccc(Cl)cc4)cc23)c1F
viability, T/C (compound 0.0316 µM): 91% and 97.4% (2×) and 99.9%
viability, T/C (compound 0.1 µM): 94.3% [middle of 4 runs]
viability, T/C (compound 0.316 µM): 106% [middle of 4 runs]
viability, T/C (compound 1 µM): 107% [middle of 4 runs]
viability, T/C (compound 10 µM): 47.2% [middle of 4 runs]
IC50 (curve of compound): 9.4 µM [middle of 4 runs]

CCN1CCN(Cc2ccc(Nc3ncc(F)c(-c4cc(F)c5nc(C)n(C(C)C)c5c4)n3)nc2)CC1
viability, T/C (compound 0.00316 µM): 104% [middle of 4 runs]
viability, T/C (compound 0.01 µM): 91.4% [middle of 4 runs]
viability, T/C (compound 0.0316 µM): 102% [middle of 4 runs]
viability, T/C (compound 0.1 µM): 90.4% [middle of 4 runs]
viability, T/C (compound 0.316 µM): 90.4% [middle of 4 runs]
viability, T/C (compound 1 µM): 91.2% [middle of 4 runs]
IC50 (curve of compound): > 1 µM

CNC(=O)c1ccc(N2C(=S)N(c3ccc(C#N)c(C(F)(F)F)c3)C(=O)C2(C)C)cc1F
viability, T/C (compound 0.0316 µM): 106% [middle of 4 runs]
viability, T/C (compound 0.1 µM): 95.9% [middle of 4 runs]
viability, T/C (compound 0.316 µM): 105% [middle of 4 runs]
viability, T/C (compound 1 µM): 108% [middle of 4 runs]
viability, T/C (compound 3.16 µM): 91.4% [middle of 4 runs]
viability, T/C (compound 10 µM): 89.3% [middle of 4 runs]
IC50 (curve of compound): > 10 µM

COc1c(OCCCN2CCOCC2)ccc2c3n(c(=NC(=O)c4cnc(N)nc4)nc12)CCN3
viability, T/C (compound 0.01 µM): 99.1% [middle of 8 runs]
viability, T/C (compound 0.0316 µM): 70.4% [middle of 8 runs]
viability, T/C (compound 0.1 µM): 45.4% [middle of 8 runs]
viability, T/C (compound 0.316 µM): 20.5% [middle of 8 runs]
viability, T/C (compound 1 µM): 7.09% [middle of 8 runs]
IC50 [2]: 86.9 nM [middle of 8 runs]

C[C@@H](NC(=O)c1ncnc(N)c1Cl)c1ncc(C(=O)Nc2cc(C(F)(F)F)c(Cl)cn2)s1
viability, T/C (compound 0.0316 µM): 93.7% [middle of 4 runs]
viability, T/C (compound 0.316 µM): 89.2% and 106% (2×) and 91.6%
viability, T/C (compound 3.16 µM): 99.1% [middle of 4 runs]
viability, T/C (compound 10 µM): 91% [middle of 4 runs]
IC50 (curve of compound): > 10 µM

Cc1nc(NC(=O)N2CCCC2C(N)=O)sc1-c1ccnc(C(C)(C)C(F)(F)F)c1 (configuration not stated)
viability, T/C (compound 0.0316 µM): 97.8% [middle of 8 runs]
viability, T/C (compound 0.1 µM): 96.2% [middle of 8 runs]
viability, T/C (compound 1 µM): 97.6% [middle of 8 runs]
viability, T/C (compound 3.16 µM): 77% [middle of 7 runs]
viability, T/C (compound 10 µM): 39.9% [middle of 8 runs]
IC50 [1]: 7.37 µM [middle of 8 runs]

Cn1cnc2c(F)c(Nc3ccc(Br)cc3Cl)c(C(=O)NOCCO)cc21
viability, T/C (compound 0.00949 µM): 98.5% [middle of 4 runs]
viability, T/C (compound 0.0949 µM): 95.3% [middle of 4 runs]
viability, T/C (compound 0.3 µM): 98.9% [middle of 4 runs]
viability, T/C (compound 0.949 µM): 88% [middle of 4 runs]
viability, T/C (compound 3 µM): 95.5% [middle of 4 runs]
IC50 (curve of compound): > 3 µM

Cn1ncc(Cl)c1-c1cc(C(=O)NC(CN)Cc2cccc(F)c2)sc1Cl (configuration not stated)
viability, T/C (compound 0.0316 µM): 102% [middle of 4 runs]
viability, T/C (compound 0.316 µM): 79.4% [middle of 4 runs]
viability, T/C (compound 1 µM): 81.8% [middle of 4 runs]
viability, T/C (compound 3.16 µM): 70.3% [middle of 4 runs]
viability, T/C (compound 10 µM): 89% [middle of 4 runs]
IC50 (curve of compound): > 10 µM

Cn1nccc1Nc1nccc(-c2ccn(C(CO)c3ccc(Cl)c(F)c3)c(=O)c2)n1 (configuration not stated)
viability, T/C (compound 0.0316 µM): 103% [middle of 4 runs]
viability, T/C (compound 0.1 µM): 93.2% [middle of 4 runs]
viability, T/C (compound 0.316 µM): 105% [middle of 4 runs]
viability, T/C (compound 3.16 µM): 99.5% [middle of 4 runs]
viability, T/C (compound 10 µM): 82.5% and 92.7% and 101% (2×)
IC50 (curve of compound): > 10 µM

Cn1ncnc1[C@H]1c2n[nH]c(=O)c3cc(F)cc(c23)N[C@@H]1c1ccc(F)cc1
viability, T/C (compound 0.000316 µM): 103% [middle of 4 runs]
viability, T/C (compound 0.001 µM): 98.3% [middle of 4 runs]
viability, T/C (compound 0.01 µM): 109% [middle of 4 runs]
viability, T/C (compound 0.0316 µM): 101% [middle of 4 runs]
IC50 (curve of compound): > 0.1 µM
